According to patent US20210213010A1, “TLR7/8 AGONISTS AND LIPOSOME COMPOSITIONS” (Torque Therapeutics, Inc., priority 2018, published 2021):
Several values for one entry are separate records, joined by “and”; a condition that tells them apart may be missing. Equal entries are not always repeated. Entries after “also recorded” stand apart in the source; their conditions may differ.

How the values were obtained:
[1] = Remote loading efficiency of small molecules into liposomes (PD-10 size exclusion, HPLC); type: physicochemical; settings: for Remote loading efficiency 1 h (%) / Remote loading efficiency 3 h (%): mean (SD), n = 2
How it was run: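 A lyophilized small-molecule powder (modified TLR agonist) was combined with liposome formulation at the desired drug/lipid ratio and stirred at elevated temperature. At 1 h and 3 h, 100 μL of mixture plus 900 μL buffer (25 mM HEPES, 10 vol % sucrose, pH 7.4) went onto a PD-10 size exclusion column. Ten 1 mL fractions were collected, and HPLC quantified compound in the liposome fractions as a percentage of the amount applied.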

[2] = Cryo-TEM of remote loaded liposomes (intraliposomal precipitation); type: physicochemical; settings: formulation F3, drug to lipid ratio 0.1
Experimental: CryoTEM samples of 3 μL of liposome solution was placed on a lacy carbon 300 mesh copper TEM grid, blotted and plunge frozen in liquid ethane using a FEI Vitrobot Mark IV. Samples were imaged using a FEI Tecnai G2 20 TWIN transmission electron microscope operated at 200 keV in low dose mode with a FEI High-Sensitive (HS) 4 k×4 k Eagle camera.

[3] = target: T1, mTLR7 (Mus musculus, UniProt P58681); experiment: NF-κB induction in HEK-Blue mTLR7 reporter cells; type: cell-based
T1 construct: host or cells: HEK-Blue (HEK293-derived) reporter cells
T1 sequence (P58681 27-1050): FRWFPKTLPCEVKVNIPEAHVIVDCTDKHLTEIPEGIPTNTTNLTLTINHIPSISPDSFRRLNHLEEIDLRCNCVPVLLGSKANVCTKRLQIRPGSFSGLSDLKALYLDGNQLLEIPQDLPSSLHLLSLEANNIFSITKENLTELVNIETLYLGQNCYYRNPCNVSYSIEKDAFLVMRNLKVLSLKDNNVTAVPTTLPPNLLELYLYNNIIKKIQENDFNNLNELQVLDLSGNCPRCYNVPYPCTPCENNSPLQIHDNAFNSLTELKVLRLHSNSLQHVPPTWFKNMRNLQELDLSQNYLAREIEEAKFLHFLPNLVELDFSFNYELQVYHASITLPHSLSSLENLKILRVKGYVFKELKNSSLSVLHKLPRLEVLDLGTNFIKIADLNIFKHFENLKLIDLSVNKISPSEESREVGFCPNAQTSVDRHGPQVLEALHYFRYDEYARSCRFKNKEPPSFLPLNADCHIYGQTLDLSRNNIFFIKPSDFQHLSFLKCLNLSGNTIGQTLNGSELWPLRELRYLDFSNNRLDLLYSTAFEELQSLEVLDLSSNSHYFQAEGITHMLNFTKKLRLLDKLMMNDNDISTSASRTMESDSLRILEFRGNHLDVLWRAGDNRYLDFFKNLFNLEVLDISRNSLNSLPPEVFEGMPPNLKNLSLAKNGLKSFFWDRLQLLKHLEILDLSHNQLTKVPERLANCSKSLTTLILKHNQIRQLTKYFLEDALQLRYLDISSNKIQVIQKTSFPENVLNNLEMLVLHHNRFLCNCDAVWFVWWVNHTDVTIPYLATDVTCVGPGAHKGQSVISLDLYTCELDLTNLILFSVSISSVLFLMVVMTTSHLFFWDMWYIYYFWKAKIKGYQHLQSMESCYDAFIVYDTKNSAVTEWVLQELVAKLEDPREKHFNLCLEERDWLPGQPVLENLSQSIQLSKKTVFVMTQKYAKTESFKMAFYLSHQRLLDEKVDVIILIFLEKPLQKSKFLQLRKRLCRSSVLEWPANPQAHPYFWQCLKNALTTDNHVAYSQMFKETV
Source text: This example describes the general procedure used to assess the compounds' potency to induce NF-κB expression in human embryonic kidney (HEK) cells. The transcription factor NF-κB is expressed upon stimulation of TLR7/8 and is commonly used for quantifying TLR7/8 agonist potencies in reporter cell assays. Conversely, we used HEK-Blue mTLR-7 cells to evaluate the potencies of the synthesized derivatives, as previously reported (Shukla et al, J. Med. Chem. (2010), 53, 4450-4465).
HEK-Blue TLR7 assays were carried out using HEK-Blue™ mTLR7 cells (Invivogen, Toulouse, France, Cat. #hkb-mtlr7). The assays were carried out according to the protocol from Invivogen. TLR expressing cells were cultured in DMEM high glucose (4.5 g/L) supplemented with 10% (v/v) fetal bovine serum (FBS) and 1% (v/v) penicillin-streptomycin (P/S) to 50 U/ml penicillin and […] streptomycin. On the day of the study, the cells were seeded in a 96-well plate (ThermoFisher Scientific, Roskilde, Denmark) with 20 μL imidazoquinoline TLR7/8 agonist solutions per well at varying concentrations by adding 180 μL cell suspension, made by suspending cells to 0.22×10^6 cells per mL in HEK-Blue™ Detection medium (Invivogen, Cat. #hb-det2) added Blasticidin (10 μg/ml) and Zeocin™ (100 μg/ml), leading to a final concentration of 40×10^3 cells per well in triplicates. Cells were incubated with the imidazoquinoline TLR7/8 agonists, formulated in liposomes or dissolved in PBS, at 37° C. with 5% CO2 for 16 h. The response was quantified spectrophotometrically at 655 nm and was normalized to the signal from a blank sample (DMSO dilution) run in parallel.

[4] = test system: RAW-Blue cells; experiment: NF-κB induction in RAW-Blue reporter cells (RAW 264.7 macrophages, SEAP); type: cell-based; settings: for EC50: RAW-Blue, sigmoidal 4PL fitting, 24 h; for Potency in the RAW-Blue cell assay: compared with R848
Source text: This example describes the general procedure used to assess the compounds' potency to induce NF-κB expression in RAW 264.7 macrophages cells that stably express secreted embryonic alkaline phosphatase (SEAP) upon induction of NF-κB. RAW-Blue™ reporter cells are commonly used for quantifying TLR7/8 agonist potencies in reporter cell assays. Conversely, we used RAW-Blue™ cells to evaluate the potencies of the synthesized derivatives, as previously reported^1. ^1 Ryu et al, J. Am. Chem. Soc. (2014), 136, 10823-10825
RAW 264.7 assays were carried out using RAW-Blue™ cells and QUANTI-Blue™ detection solution (Invivogen, Toulouse, France, at. #raw-sp and rep-qbs respectively). The assays carried out according to the protocol from Invivogen. RAW 264.7 macrophages were cultured in DMEM high glucose (4.5 g/L) supplemented with 10% (v/v) FBS, 1% (v/v) P/S, and Normocin™ (100 μg/ml). On the day of the study, the cells were seeded in a 96-well plate (ThermoFisher Scientific, Roskilde, Denmark) with 20 μL TLR7/8 agonist solutions per well at varying concentrations by adding 180 μL cell suspension, made by suspending cells to 0.55×10^6 cells per mL in the prepared cell medium added Zeocin™ (200 μg/ml), leading to a final concentration of 100×10^3 cells per well in triplicates. Cells were incubated with the TLR7/8 agonists, diluted from 10 mM DMSO stocks in PBS, at 37° C. with 5% CO2 for 24 h for SEAP production. 50 μL SEAP containing cell supernatant from each well was added 150 μL QUANTI-Blue™ detection solution and was incubated at 37° C. for 3-6 h. The resulting response was quantified spectrophotometrically at 640 nm and was normalized to the signal from a blank sample (DMSO dilution) run in parallel.
Half maximal effective concentration (EC50) values were determined from sigmoidal 4PL fittings from the resulting dose-response curves in GraphPad Prism.

[5] = formulation F3, drug/lipid ratio 0.10, 1 h
[6] = formulation F3, drug/lipid ratio 0.10, 3 h
[7] = formulation F3, drug/lipid ratio 0.25, 1 h
[8] = formulation F3, drug/lipid ratio 0.25, 3 h

SMILES	Remote loading efficiency 1 h (%) [1, 5]	Remote loading efficiency 3 h (%) [1, 6]	Remote loading efficiency 1 h (%) [1, 7]	Remote loading efficiency 3 h (%) [1, 8]	Remote loading efficiency 1 h (%) ([1]; formulation F3, drug/lipid ratio 0.50, 1 h)	Remote loading efficiency 3 h (%) ([1]; formulation F3, drug/lipid ratio 0.50, 3 h)	Intraliposomal precipitation (Cryo-TEM) [2]	TLR7 agonist activity (NF-κB induction) ([3]; liposomal, formulation F3)	EC50 [4]	Potency in the RAW-Blue cell assay [4]	Loading efficiency ([1]; formulation F3, drug/lipid ratio 0.1, time not specified (within 3 h))	Remote loading efficiency 1 h (%) ([1]; formulation F4 (250 mM ammonium sulfate), drug/lipid ratio 0.10, 1 h)	Remote loading efficiency 3 h (%) ([1]; formulation F4 (250 mM ammonium sulfate), drug/lipid ratio 0.10, 3 h)	Remote loading efficiency 1 h (%) ([1]; formulation F4 (250 mM ammonium sulfate), drug/lipid ratio 0.25, 1 h)	Remote loading efficiency 3 h (%) ([1]; formulation F4 (250 mM ammonium sulfate), drug/lipid ratio 0.25, 3 h)	TLR7 agonist activity (NF-κB induction) ([3]; free compounds, 16 h)
CCCCc1nc2c(N)nc3ccccc3c2n1Cc1ccc(CN)cc1 [MK130, 1-(4-(aminomethyl)benzyl)-2-butyl-1H-imidazo[4,5-c]quinolin-4-amine]	93.8 (5.8) %	96.7 (1.3) %	45.9 (1.9) %	48.9 (2.1) %	19.7 (0.4) %	20% and 19.5 (1.1) %	slight precipitation	potencies much higher than R848	30 nM	the most potent compounds	–	–	–	–	–	–
CCCCc1nc2c(N)nc3ccccc3c2n1Cc1ccc(CNC(=O)[C@@H](N)Cc2ccccc2)cc1 [MK138, (S)-2-amino-N-(4-((4-amino-2-butyl-1H-imidazo[4,5-c]quinolin-1-yl)methyl)benzyl)-3-phenylpropanamide]	82.5 (1.2) % and 82.6 (1.2) %	86% and 86.2 (0.2) % and 86.2 (0.1) %	5% and 5.1 (0.1) %	0.5 (0.1) %	–	–	precipitated to form rod-like crystals	potencies much higher than R848	40 nM	greater potencies than R848	≤ 90%	96.5 (3.3) %	100% and 100.0 (0.1) %	93% and 93.0 (5.7) %	96.5 (0.7) %	a higher response than both MK130 and R848 at 1 μM; also recorded: only little activity was observed at concentrations <0.32 μM
